Measurements taken from PubChem BioAssay (NCI).
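Cultured in 96-well plates, cells were exposed to test compound for 48 hours across five concentrations. TGI marks complete inhibition of growth.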

Key:
Assay in all cases: NCI-60 cell line screen, 48 h
HT29 colon = test system: HT29 colon
SN12C renal = test system: SN12C renal
U251 CNS = test system: U251 CNS
OVCAR-5 ovarian = test system: OVCAR-5 ovarian
EKVX NSCLC = test system: EKVX NSCLC
DMS 273 small cell lung = test system: DMS 273 small cell lung
NCI-H23 lung = test system: NCI-H23 lung
SNB-19 CNS = test system: SNB-19 CNS
ACHN renal = test system: ACHN renal
CAKI-1 renal = test system: CAKI-1 renal
HCT-116 colon = test system: HCT-116 colon
CCRF-CEM leukemia = test system: CCRF-CEM leukemia
UO-31 renal = test system: UO-31 renal
SW-620 colon = test system: SW-620 colon
IGROV1 ovarian = test system: IGROV1 ovarian
OVCAR-8 ovarian = test system: OVCAR-8 ovarian
LOX IMVI melanoma = test system: LOX IMVI melanoma
SK-MEL-28 melanoma = test system: SK-MEL-28 melanoma
SF-268 CNS = test system: SF-268 CNS
SF-539 CNS = test system: SF-539 CNS
A498 renal = test system: A498 renal
HCC-2998 colon = test system: HCC-2998 colon
UACC-62 melanoma = test system: UACC-62 melanoma
M14 melanoma = test system: M14 melanoma
DLD-1 colon = test system: DLD-1 colon
MOLT-4 leukemia = test system: MOLT-4 leukemia
RXF 393 renal = test system: RXF 393 renal
LXFL 529 NSCLC = test system: LXFL 529 NSCLC
OVCAR-3 ovarian = test system: OVCAR-3 ovarian
HOP-18 NSCLC = test system: HOP-18 NSCLC
SR leukemia = test system: SR leukemia
UACC-257 melanoma = test system: UACC-257 melanoma
A549 NSCLC = test system: A549 NSCLC
SK-OV-3 ovarian = test system: SK-OV-3 ovarian
SNB-75 CNS = test system: SNB-75 CNS
HCT-15 colon = test system: HCT-15 colon
SK-MEL-5 melanoma = test system: SK-MEL-5 melanoma
RXF-631 renal = test system: RXF-631 renal
NCI-H460 lung = test system: NCI-H460 lung
COLO 205 colon = test system: COLO 205 colon
NCI-H226 lung = test system: NCI-H226 lung
SK-MEL-2 melanoma = test system: SK-MEL-2 melanoma
786-0 renal = test system: 786-0 renal
M19-MEL melanoma = test system: M19-MEL melanoma
SF-295 CNS = test system: SF-295 CNS
NCI-H522 lung = test system: NCI-H522 lung
K-562 leukemia = test system: K-562 leukemia
MALME-3M melanoma = test system: MALME-3M melanoma
KM20L2 colon = test system: KM20L2 colon
SNB-78 CNS = test system: SNB-78 CNS
KM12 colon = test system: KM12 colon
RPMI-8226 leukemia = test system: RPMI-8226 leukemia
HOP-62 NSCLC = test system: HOP-62 NSCLC
OVCAR-4 ovarian = test system: OVCAR-4 ovarian
DMS 114 small cell lung = test system: DMS 114 small cell lung
TK-10 renal = test system: TK-10 renal
XF 498 CNS = test system: XF 498 CNS
HOP-92 NSCLC = test system: HOP-92 NSCLC

Compound: COc1cc(NCC(C#N)C#N)ccc1N=Nc1ccc([N+](=O)[O-])cc1
- TGI (HT29 colon): > 100 µM
- TGI (SN12C renal): > 100 µM
- TGI (U251 CNS): > 100 µM
- TGI (OVCAR-5 ovarian): > 100 µM
- TGI (EKVX NSCLC): > 100 µM
- TGI (DMS 273 small cell lung): > 100 µM
- TGI (NCI-H23 lung): > 100 µM
- TGI (SNB-19 CNS): > 100 µM
- TGI (ACHN renal): > 100 µM
- TGI (CAKI-1 renal): > 100 µM
- TGI (HCT-116 colon): > 100 µM
- TGI (CCRF-CEM leukemia): > 100 µM
- TGI (UO-31 renal): > 100 µM
- TGI (SW-620 colon): > 100 µM
- TGI (IGROV1 ovarian): > 100 µM
- TGI (OVCAR-8 ovarian): > 100 µM
- TGI (LOX IMVI melanoma): > 100 µM
- TGI (SK-MEL-28 melanoma): > 100 µM
- TGI (SF-268 CNS): > 100 µM
- TGI (SF-539 CNS): > 100 µM
- TGI (A498 renal): > 100 µM
- TGI (HCC-2998 colon): > 100 µM
- TGI (UACC-62 melanoma): > 100 µM
- TGI (M14 melanoma): > 100 µM
- TGI (DLD-1 colon): > 100 µM
- TGI (MOLT-4 leukemia): > 100 µM
- TGI (RXF 393 renal): > 100 µM
- TGI (LXFL 529 NSCLC): > 100 µM
- TGI (OVCAR-3 ovarian): > 100 µM
- TGI (HOP-18 NSCLC): > 100 µM
- TGI (SR leukemia): > 100 µM
- TGI (UACC-257 melanoma): > 100 µM
- TGI (A549 NSCLC): > 100 µM
- TGI (SK-OV-3 ovarian): > 100 µM
- TGI (SNB-75 CNS): > 100 µM
- TGI (HCT-15 colon): > 100 µM
- TGI (SK-MEL-5 melanoma): > 100 µM
- TGI (RXF-631 renal): > 100 µM
- TGI (NCI-H460 lung): > 100 µM
- TGI (COLO 205 colon): > 100 µM
- TGI (NCI-H226 lung): > 100 µM
- TGI (SK-MEL-2 melanoma): > 100 µM
- TGI (786-0 renal): > 100 µM
- TGI (M19-MEL melanoma): > 100 µM
- TGI (SF-295 CNS): > 100 µM
- TGI (NCI-H522 lung): > 100 µM
- TGI (K-562 leukemia): > 100 µM
- TGI (MALME-3M melanoma): > 100 µM
- TGI (KM20L2 colon): > 100 µM
- TGI (SNB-78 CNS): > 100 µM
- TGI (KM12 colon): > 100 µM
- TGI (RPMI-8226 leukemia): > 100 µM
- TGI (HOP-62 NSCLC): > 100 µM
- TGI (OVCAR-4 ovarian): > 100 µM
- TGI (DMS 114 small cell lung): > 100 µM
- TGI (TK-10 renal): > 100 µM

Compound: COc1cc(/C=C(\NC(=O)c2ccccc2)c2nc3ccc([N+](=O)[O-])cc3[nH]2)cc(OC)c1OC
- TGI (HT29 colon): > 100 µM
- TGI (SN12C renal): > 100 µM
- TGI (U251 CNS): > 100 µM
- TGI (OVCAR-5 ovarian): > 100 µM
- TGI (NCI-H23 lung): > 100 µM
- TGI (SNB-19 CNS): > 100 µM
- TGI (CAKI-1 renal): > 100 µM
- TGI (CCRF-CEM leukemia): > 100 µM
- TGI (UO-31 renal): 89.5 µM
- TGI (SW-620 colon): > 100 µM
- TGI (IGROV1 ovarian): > 100 µM
- TGI (OVCAR-8 ovarian): > 100 µM
- TGI (SK-MEL-28 melanoma): > 100 µM
- TGI (HCC-2998 colon): > 100 µM
- TGI (UACC-62 melanoma): > 100 µM
- TGI (M14 melanoma): > 100 µM
- TGI (DLD-1 colon): > 100 µM
- TGI (MOLT-4 leukemia): > 100 µM
- TGI (RXF 393 renal): > 100 µM
- TGI (LXFL 529 NSCLC): > 100 µM
- TGI (OVCAR-3 ovarian): > 100 µM
- TGI (SR leukemia): > 100 µM
- TGI (SK-OV-3 ovarian): > 100 µM
- TGI (HCT-15 colon): > 100 µM
- TGI (SK-MEL-5 melanoma): > 100 µM
- TGI (COLO 205 colon): > 100 µM
- TGI (SK-MEL-2 melanoma): > 100 µM
- TGI (M19-MEL melanoma): > 100 µM
- TGI (SF-295 CNS): > 100 µM
- TGI (NCI-H522 lung): > 100 µM
- TGI (K-562 leukemia): > 100 µM
- TGI (XF 498 CNS): > 100 µM
- TGI (MALME-3M melanoma): > 100 µM
- TGI (HOP-92 NSCLC): > 100 µM
- TGI (KM20L2 colon): > 100 µM
- TGI (SNB-78 CNS): > 100 µM
- TGI (KM12 colon): > 100 µM
- TGI (OVCAR-4 ovarian): > 100 µM
- TGI (DMS 114 small cell lung): > 100 µM
- TGI (TK-10 renal): > 100 µM
